From patent publication US8080529B2, “Macrolides with anti-inflammatory activity” (Glaxo Group Limited, priority 2005, dated 2011)
Read-outs that look alike come from different tables or passages of the source.

Experiments:
Format in all cases: cell-based
TNF-α = assay: Inhibition of TNF-α production by stimulated human peripheral blood leukocytes in vitro; settings: Homo sapiens, Leukocyte, read-out: Percentage of inhibition of TNF-α production
Protocol: (§1) Test substances used in in vitro experiments were dissolved in dimethyl sulfoxide (DMSO) (Kemika, Croatia) at concentrations of 50 mM and 10 mM, and were further diluted to final concentrations of 50 μM and 10 μM in 1 mL Dulbecco's modified Eagle medium (DMEM) supplemented with 1% heat inactivated fetal bovine serum (FBS), 1% L-glutamine, 50 U/ml penicillin, 50 μg/ml streptomycin and 2.5 μg/mL Fungizone (amphotericin B). Media and all media supplements were purchased from Gibco, Australia, except the FBS was purchased from Sigma, USA.
(§2) Peripheral blood leukocytes (PBL) were obtained from venous blood of healthy volunteers by sedimentation on 2% dextran T-500 (Amersham Biosciences, USA) and subsequent centrifugations of leukocyte rich plasma.
(§3) Peripheral blood leukocytes (PBL), isolated as described above, were seeded in a 48-well plate at a concentration of 3 to 5×10^6 cell per well in culture medium consisting of RPMI 1640 medium (Institute of Immunology, Croatia) supplemented with 10% heat-inactivated fetal calf serum (FCS, Biowhittaker, USA), 100 U/ml penicillin (Gibco, Australia), 100 μg/ml streptomycin (Gibco, Australia) and 2 mM L-glutamine (Gibco, Australia), and preincubated with the test compounds for 2 h at 37° C., in an atmosphere of 5% CO2, and 90% humidity. Then, stimuli (Sigma, USA) were added to a final concentration of 2 μg/mL lipopolysaccharide (LPS), 1 μg/mL phorbol 12-myristate 13-acetate (PMA) or 120 μg/mL zymosan. Samples were incubated overnight under conditions described above. At the end of incubation, the supernatants were transferred to eppendorf tubes and centrifuged for 10 min at 1500×g. Concentrations of human TNF-α, IL-1β, IL-6 and IL-8 were determined in cell supernatants by sandwich ELISA, using capture and detection antibodies (R&D Systems, Minneapolis, Minn.) according to the manufacturer's recommendations.
(§4) Inhibition (as percentage) was calculated using the following formula: % inhibition=(1−concentration of cytokines in sample/concentration of cytokines in positive control)×100.
(§5) The positive control refers to LPS-, PMA- or zymosan-stimulated samples that were not preincubated with test compounds.

IL-1α = assay: Inhibition of IL-1 production by stimulated human peripheral blood leukocytes in vitro; settings: Homo sapiens, Leukocyte, read-out: Percentage of inhibition of IL-1α production
IL-6 = assay: Inhibition of IL-6 production by stimulated human peripheral blood leukocytes in vitro; settings: Homo sapiens, Leukocyte, read-out: Percentage of inhibition of IL-6 production
Protocol: as §1, §2, §3, §4, §5

IL-8 = assay: Inhibition of IL-8 production by stimulated human peripheral blood leukocytes in vitro; settings: Homo sapiens, Leukocyte, read-out: Percentage of inhibition of IL-8 production
Protocol: as §1, §2, §3, §4, §5

Hep G2 = assay: Cytotoxicity assay (MTT), Hep G2 cell line; settings: 24 h
Protocol: (§6) To determine whether the anti-inflammatory activity of the test compounds was due to observed inhibition of cytokine production and inhibition of proliferation in vitro, and was not a consequence of cellular cytotoxicity, measurement of succinate dehydrogenase activity in living cells was performed. Cells were cultured for 24 h in RPM medium as described above at 37° C. the presence of the test compounds at concentrations of 50 μM and 12.5 μM. MTT [3-(4,5-dimethylthiazole-2-yl)-2,5-diphenyl tetrazolium bromide] (Promega, USA), a detection reagent, was then added and the cultures were incubated for 0.5-2 h. The amount of MTT-Formazan produced was determined using a spectrophotometer at 490 nm (Mosmann, J. Immunol. Methods, 1983, 65: 55-63).
(§7) The percentage of inhibition of cell growth was calculated using the following formula: % inhibition of cell growth=[…].

A549 = assay: Cytotoxicity assay (MTT), A549 cell line; settings: 24 h
Protocol: as §6, §7

| Structure (SMILES) | inhibition at 10 µM (TNF-α; LPS-stimulated PBL) [%] | inhibition at 10 µM (TNF-α; PMA-stimulated PBL) [%] | inhibition at 10 µM (TNF-α; zymosan-stimulated PBL) [%] | inhibition at 50 µM (TNF-α; LPS-stimulated PBL) [%] | inhibition at 50 µM (TNF-α; PMA-stimulated PBL) [%] | inhibition at 50 µM (TNF-α; zymosan-stimulated PBL) [%] | inhibition at 10 µM (IL-1α; LPS-stimulated PBL) [%] | inhibition at 10 µM (IL-1α; PMA-stimulated PBL) [%] | inhibition at 10 µM (IL-1α; zymosan-stimulated PBL) [%] | inhibition at 50 µM (IL-1α; LPS-stimulated PBL) [%] | inhibition at 50 µM (IL-1α; PMA-stimulated PBL) [%] | inhibition at 50 µM (IL-1α; zymosan-stimulated PBL) [%] | inhibition at 10 µM (IL-6; LPS-stimulated PBL) [%] | inhibition at 10 µM (IL-6; PMA-stimulated PBL) [%] | inhibition at 10 µM (IL-6; zymosan-stimulated PBL) [%] | inhibition at 50 µM (IL-6; LPS-stimulated PBL) [%] | inhibition at 50 µM (IL-6; PMA-stimulated PBL) [%] | inhibition at 50 µM (IL-6; zymosan-stimulated PBL) [%] | inhibition at 10 µM (IL-8; LPS-stimulated PBL) [%] | inhibition at 10 µM (IL-8; PMA-stimulated PBL) [%] | further results |
| --- | --- | --- | --- | --- | --- | --- | --- | --- | --- | --- | --- | --- | --- | --- | --- | --- | --- | --- | --- | --- | --- |
| CC[C@H]1OC(=O)[C@H](C)[C@@H](O[C@H]2C[C@@](C)(OC)[C@@H](OC(=O)CCNC(C)C)[C@H](C)O2)[C@H](C)[C@@H](O[C@@H]2O[C@H](C)C[C@H](N(C)C)[C@H]2O)[C@](C)(OC)C[C@@H](C)C(=O)N[C@H](C)[C@@H](O)[C@]1(C)O [Example 23] | 0 | 5 | 0 | 19 | 54 | 37 | 2 | 12 | 67 | 39 | 69 | 75 | 0 | 20 | 35 | 14 | 59 | 45 | 0 | 0 | inhibition at 10 µM (IL-8; zymosan-stimulated PBL): 22%; inhibition at 50 µM (IL-8; LPS-stimulated PBL): 10%; inhibition at 50 µM (IL-8; PMA-stimulated PBL): 15%; inhibition at 50 µM (IL-8; zymosan-stimulated PBL): 43%; Percentage of inhibition of cell growth (Hep G2; 12.5 μM): 6%; Percentage of inhibition of cell growth (Hep G2; 50 μM): 5%; Percentage of inhibition of cell growth (A549; 12.5 μM): 0%; Percentage of inhibition of cell growth (A549; 50 μM): 0% |
| CC[C@H]1OC(=O)[C@H](C)[C@@H](O[C@H]2C[C@@](C)(OC)[C@@H](OC(=O)CCN(C)C3CCCCC3)[C@H](C)O2)[C@H](C)[C@@H](O[C@@H]2O[C@H](C)C[C@H](N(C)C)[C@H]2O)[C@](C)(OC)C[C@@H](C)C(=O)N[C@H](C)[C@@H](O)[C@]1(C)O [Example 25] | 0 | 41 | 19 | 71 | 91 | 88 | 22 | 58 | 82 | 61 | 86 | 93 | 4 | 51 | 51 | 62 | 87 | 86 | 0 | 0 | inhibition at 10 µM (IL-8; zymosan-stimulated PBL): 17%; inhibition at 50 µM (IL-8; LPS-stimulated PBL): 45%; inhibition at 50 µM (IL-8; PMA-stimulated PBL): 34%; inhibition at 50 µM (IL-8; zymosan-stimulated PBL): 63%; Percentage of inhibition of cell growth (Hep G2; 12.5 μM): 10%; Percentage of inhibition of cell growth (Hep G2; 50 μM): 8%; Percentage of inhibition of cell growth (A549; 12.5 μM): 8%; Percentage of inhibition of cell growth (A549; 50 μM): 4% |
| CC[C@H]1OC(=O)[C@H](C)[C@@H](O[C@H]2C[C@@](C)(OC)[C@@H](OC(=O)CCN3CCN(CC4CCCN(C)C4)CC3)[C@H](C)O2)[C@H](C)[C@@H](O[C@@H]2O[C@H](C)C[C@H](N(C)C)[C@H]2O)[C@](C)(OC)C[C@@H](C)C(=O)N[C@H](C)[C@@H](O)[C@]1(C)O (stereo partly drawn) [Example 33] | 16 | 23 | 16 | 50 | 74 | 53 | 28 | 33 | 55 | 42 | 75 | 85 | 8 | 9 | 13 | 30 | 49 | 40 | 0 | 0 | inhibition at 10 µM (IL-8; zymosan-stimulated PBL): 0%; inhibition at 50 µM (IL-8; LPS-stimulated PBL): 11%; inhibition at 50 µM (IL-8; PMA-stimulated PBL): 10%; inhibition at 50 µM (IL-8; zymosan-stimulated PBL): 40%; Percentage of inhibition of cell growth (Hep G2; 12.5 μM): 5%; Percentage of inhibition of cell growth (Hep G2; 50 μM): 4%; Percentage of inhibition of cell growth (A549; 12.5 μM): 0%; Percentage of inhibition of cell growth (A549; 50 μM): 0% |
